US8278345B2, “Inhibitors of glutaminyl cyclase” (Probiodrug AG, priority 2006, dated 2012)

Biological target: hQC (Homo sapiens, UniProt Q16769)
Assay: Inhibitor assay for glutaminyl cyclase activity (fluorometric, H-Gln-βNA / H-Gln-AMC)
Assay type: biochemical
Details: compound from preparative synthesis, purified; read-out: IC50 hQC
How it was run: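 Coupled fluorometric assay at 30 °C with pyroglutamyl aminopeptidase, in Tris/HCl pH 8.0 with EDTA, substrate H-Gln-βNA (0.2 mM; ex/em 320/410 nm) or H-Gln-AMC (ex/em 380/460 nm), initiated by QC. Screening: 4 mM inhibitor, substrate at 1 KM; Ki from progress curves fitted to competitive inhibition.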

Sequence of hQC (Q16769 29-361): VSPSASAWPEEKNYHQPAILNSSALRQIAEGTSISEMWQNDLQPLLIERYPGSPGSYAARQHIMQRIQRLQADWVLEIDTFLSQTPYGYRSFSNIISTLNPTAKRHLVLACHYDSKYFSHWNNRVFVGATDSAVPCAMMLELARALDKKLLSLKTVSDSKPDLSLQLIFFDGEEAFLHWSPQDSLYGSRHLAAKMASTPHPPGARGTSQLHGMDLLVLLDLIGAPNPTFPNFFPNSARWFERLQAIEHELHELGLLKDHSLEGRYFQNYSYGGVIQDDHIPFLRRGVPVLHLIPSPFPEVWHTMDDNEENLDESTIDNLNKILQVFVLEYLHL

Row | Compound | IC50 [nM]
1 | O=C1C(O)=C(c2ccccc2)C(c2ccccc2F)N1CCCn1ccnc1 (stereo not drawn) [Compound 110, 5-(2-Fluoro-phenyl)-3-hydroxy-1-(3-imidazol-1-yl-propyl)-4-phenyl-1,5-dihydro-pyrrol-2-one] | 740
2 | CCCC(=O)C1=C(O)C(=O)N(c2ccc3[nH]cnc3c2)C1c1ccc(C)o1 (stereo not drawn) [Compound 256, 1-(1H-Benzoimidazol-5-yl)-4-butyryl-3-hydroxy-5-(5-methyl-furan-2-yl)-1,5-dihydro-pyrrol-2-one] | 203

Same assay, conditions: read-out: IC50

Row | Compound | IC50 [nM]
3 | O=C1C(O)=C(c2c[nH]c3ccccc23)C(c2coc3ccccc3c2=O)N1c1ccc2[nH]cnc2c1 (stereo not drawn) [Compound 357, 1-(1H-Benzoimidazol-5-yl)-3-hydroxy-4-(1H-indol-3-yl)-5-(4-oxo-4H-chromen-3-yl)-1,5-dihydro-pyrrol-2-one] | 4720
4 | O=C1C(O)=C(c2ccccc2)C(c2ccccc2O)N1CCCn1ccnc1 (stereo not drawn) [Compound 87, 3-Hydroxy-5-(2-hydroxy-phenyl)-1-(3-imidazol-1-yl-propyl)-4-phenyl-1,5-dihydro-pyrrol-2-one] | 3100
5 | COc1ccc(C2C(C)=C(O)C(=O)N2CCCn2ccnc2)cc1 (stereo not drawn) [Compound 27, 3-Hydroxy-1-(3-imidazol-1-yl-propyl)-5-(4-methoxy-phenyl)-4-methyl-1,5-dihydro-pyrrol-2-one] | 4000
6 | Cc1cc(C2C(c3ccccc3)=C(O)C(=O)N2c2ccc3[nH]cnc3c2)oc1C (stereo not drawn) [Compound 395, 1-(1H-Benzoimidazol-5-yl)-5-(4,5-dimethyl-furan-2-yl)-3-hydroxy-4-phenyl-1,5-dihydro-pyrrol-2-one] | 1390
7 | CC(C)C1=C(O)C(=O)N(CCCn2ccnc2)C1c1cccc(O)c1 (stereo not drawn) [Compound 75, 3-Hydroxy-5-(3-hydroxy-phenyl)-1-(3-imidazol-1-yl-propyl)-4-isopropyl-1,5-dihydro-pyrrol-2-one] | 4900
8 | CCCC(=O)C1=C(O)C(=O)N(c2ccc3[nH]cnc3c2)C1C1CC1 (stereo not drawn) [Compound 449, 1-(1H-Benzoimidazol-5-yl)-4-butyryl-5-cyclopropyl-3-hydroxy-1,5-dihydro-pyrrol-2-one] | 2200
9 | CC1=C(O)C(=O)N(c2ccc3[nH]cnc3c2)C1c1cc(C)c(C)o1 (stereo not drawn) [Compound 394, 1-(1H-Benzoimidazol-5-yl)-5-(4,5-dimethyl-furan-2-yl)-3-hydroxy-4-methyl-1,5-dihydro-pyrrol-2-one] | 9220
10 | CC(C)C1=C(O)C(=O)N(CCCn2ccnc2)C1c1ccccn1 (stereo not drawn) [Compound 69, 3-Hydroxy-1-(3-imidazol-1-yl-propyl)-4-isopropyl-5-pyridin-2-yl-1,5-dihydro-pyrrol-2-one] | 4900
11 | O=C1C(O)=C(c2ccccc2)C(c2ccccc2F)N1CCCn1ccnc1 (stereo not drawn) [Compound 110, 5-(2-Fluoro-phenyl)-3-hydroxy-1-(3-imidazol-1-yl-propyl)-4-phenyl-1,5-dihydro-pyrrol-2-one] | 40
12 | CC1=C(O)C(=O)N(c2ccc3[nH]cnc3c2)C1c1ccc2nsnc2c1 (stereo not drawn) [Compound 380, 1-(1H-Benzoimidazol-5-yl)-5-benzo[c][1,2,5]thiadiazol-5-yl-3-hydroxy-4-methyl-1,5-dihydro-pyrrol-2-one] | 1030
13 | CCCCCC1=C(O)C(=O)N(CCCn2ccnc2)C1c1cc[nH]n1 (stereo not drawn) [Compound 188, 3-Hydroxy-1-(3-imidazol-1-yl-propyl)-4-pentyl-5-(1H-pyrazol-3-yl)-1,5-dihydro-pyrrol-2-one] | 400
14 | Cc1[nH]c2ccccc2c1C1C(C(=O)C2CC2)=C(O)C(=O)N1c1ccc2[nH]cnc2c1 (stereo not drawn) [Compound 298, 1-(1H-Benzoimidazol-5-yl)-4-cyclopropanecarbonyl-3-hydroxy-5-(2-methyl-1H-indol-3-yl)-1,5-dihydro-pyrrol-2-one] | 7870
15 | CC1=C(O)C(=O)N(CCCn2ccnc2)C1c1ccc(C)cc1 (stereo not drawn) [Compound 21, 3-Hydroxy-1-(3-imidazol-1-yl-propyl)-4-methyl-5-p-tolyl-1,5-dihydro-pyrrol-2-one] | 2200
16 | CC(C)C1=C(O)C(=O)N(c2ccc3[nH]cnc3c2)C1c1ccco1 (stereo not drawn) [Compound 371, 1-(1H-Benzoimidazol-5-yl)-5-furan-2-yl-3-hydroxy-4-isopropyl-1,5-dihydro-pyrrol-2-one] | 5530
17 | CCCCCC1=C(O)C(=O)N(c2ccc3[nH]cnc3c2)C1c1ccccc1F (stereo not drawn) [Compound 325, 1-(1H-Benzoimidazol-5-yl)-5-(2-fluoro-phenyl)-3-hydroxy-4-pentyl-1,5-dihydro-pyrrol-2-one] | 940
18 | O=C1C(O)=C(c2ccc(O)cc2)C(c2ccccc2O)N1CCCn1ccnc1 (stereo not drawn) [Compound 157, 3-Hydroxy-5-(2-hydroxy-phenyl)-4-(4-hydroxy-phenyl)-1-(3-imidazol-1-yl-propyl)-1,5-dihydro-pyrrol-2-one] | 40
19 | CCC1=C(O)C(=O)N(c2ccc3[nH]cnc3c2)C1c1coc2ccc(C)cc2c1=O (stereo not drawn) [Compound 428, 1-(1H-Benzoimidazol-5-yl)-4-ethyl-3-hydroxy-5-(6-methyl-4-oxo-4H-chromen-3-yl)-1,5-dihydro-pyrrol-2-one] | 40
20 | CCC1=C(O)C(=O)N(c2ccc3[nH]cnc3c2)C1c1cc(Br)c(O)c(Br)c1 (stereo not drawn) [Compound 288, 1-(1H-Benzoimidazol-5-yl)-5-(3,5-dibromo-4-hydroxy-phenyl)-4-ethyl-3-hydroxy-1,5-dihydro-pyrrol-2-one] | 2290
21 | O=C(O)c1ccc(C2C(C(=O)C3CCCCC3)=C(O)C(=O)N2c2ccc3[nH]cnc3c2)o1 (stereo not drawn) [Compound 374, 5-[1-(1H-Benzoimidazol-5-yl)-3-cyclohexanecarbonyl-4-hydroxy-5-oxo-2,5-dihydro-1H-pyrrol-2-yl]-furan-2-carboxylic acid] | 760

Row | Compound | IC50 [nM]
22 | CC(=O)C1=C(O)C(=O)N(c2ccc3[nH]cnc3c2)C1C1CC1 (stereo not drawn) [Compound 266, 4-Acetyl-1-(1H-benzoimidazol-5-yl)-5-cyclopropyl-3-hydroxy-1,5-dihydro-pyrrol-2-one] | 2290
23 | CCCC(=O)C1=C(O)C(=O)N(c2ccc3[nH]cnc3c2)C1c1ccc2cccc(O)c2n1 (stereo not drawn) [Compound 368, 1-(1H-Benzoimidazol-5-yl)-4-butyryl-3-hydroxy-5-(8-hydroxy-quinolin-2-yl)-1,5-dihydro-pyrrol-2-one] | 4
24 | Cc1cccc(C2C(c3cccc(O)c3)=C(O)C(=O)N2c2ccc3[nH]cnc3c2)c1 (stereo not drawn) [Compound 434, 1-(1H-Benzoimidazol-5-yl)-3-hydroxy-4-(3-hydroxy-phenyl)-5-m-tolyl-1,5-dihydro-pyrrol-2-one] | 3640
25 | CCC1=C(O)C(=O)N(CCCn2ccnc2)C1c1cc(Cl)cc(Cl)c1O (stereo not drawn) [Compound 220, 5-(3,5-Dichloro-2-hydroxy-phenyl)-4-ethyl-3-hydroxy-1-(3-imidazol-1-yl-propyl)-1,5-dihydro-pyrrol-2-one] | 2200
26 | O=C1C(O)=C(c2ccc(O)cc2)C(c2cc(Cl)cc(Cl)c2O)N1CCCn1ccnc1 (stereo not drawn) [Compound 147, 5-(3,5-Dichloro-2-hydroxy-phenyl)-3-hydroxy-4-(4-hydroxy-phenyl)-1-(3-imidazol-1-yl-propyl)-1,5-dihydro-pyrrol-2-one] | 40
27 | CCCCCC1C(C)=C(O)C(=O)N1CCCn1ccnc1 (stereo not drawn) [Compound 30, 3-Hydroxy-1-(3-imidazol-1-yl-propyl)-4-methyl-5-pentyl-1,5-dihydro-pyrrol-2-one] | 400
28 | O=C(O)CC1=C(O)C(=O)N(c2ccc3[nH]cnc3c2)C1c1c(F)ccc(Cl)c1F (stereo not drawn) [Compound 358, [1-(1H-Benzoimidazol-5-yl)-2-(3-chloro-2,6-difluoro-phenyl)-4-hydroxy-5-oxo-2,5-dihydro-1H-pyrrol-3-yl]-acetic acid] | 4540
29 | CC(C)C1=C(O)C(=O)N(CCCn2ccnc2)C1c1cccc(Cl)c1 (stereo not drawn) [Compound 73, 5-(3-Chloro-phenyl)-3-hydroxy-1-(3-imidazol-1-yl-propyl)-4-isopropyl-1,5-dihydro-pyrrol-2-one] | 3100
30 | Cc1cccc(C2C(C(=O)CC(C)C)=C(O)C(=O)N2c2ccc3[nH]cnc3c2)c1 (stereo not drawn) [Compound 458, 1-(1H-Benzoimidazol-5-yl)-3-hydroxy-4-(3-methyl-butyryl)-5-m-tolyl-1,5-dihydro-pyrrol-2-one] | 580
31 | CC1=C(O)C(=O)N(c2ccc3[nH]cnc3c2)C1c1ccco1 (stereo not drawn) [Compound 426, 1-(1H-Benzoimidazol-5-yl)-5-furan-2-yl-3-hydroxy-4-methyl-1,5-dihydro-pyrrol-2-one] | 4
32 | CCCC(=O)C1=C(O)C(=O)N(c2ccc3[nH]cnc3c2)C1c1ccc[nH]1 (stereo not drawn) [Compound 355, 1-(1H-Benzoimidazol-5-yl)-3-butyryl-4-hydroxy-1,2-dihydro-1′H-[2,2′]bipyrrolyl-5-one] | 8680
33 | CCCCCC1=C(O)C(=O)N(CCCn2ccnc2)C1c1cc(Cl)cc(Cl)c1O (stereo not drawn) [Compound 183, 5-(3,5-Dichloro-2-hydroxy-phenyl)-3-hydroxy-1-(3-imidazol-1-yl-propyl)-4-pentyl-1,5-dihydro-pyrrol-2-one] | 40
34 | CCCCCC1C(c2cccc(O)c2)=C(O)C(=O)N1CCCn1ccnc1 (stereo not drawn) [Compound 16, 3-Hydroxy-4-(3-hydroxy-phenyl)-1-(3-imidazol-1-yl-propyl)-5-pentyl-1,5-dihydro-pyrrol-2-one] | 400
35 | CC(=O)C1=C(O)C(=O)N(c2ccc3[nH]cnc3c2)C1c1nccs1 (stereo not drawn) [Compound 349, 4-Acetyl-1-(1H-benzoimidazol-5-yl)-3-hydroxy-5-thiazol-2-yl-1,5-dihydro-pyrrol-2-one] | 1030
36 | O=C(C1=C(O)C(=O)N(c2ccc3[nH]cnc3c2)C1c1ccnc2ccccc12)C1CCCCC1 (stereo not drawn) [Compound 293, 1-(1H-Benzoimidazol-5-yl)-4-cyclohexanecarbonyl-3-hydroxy-5-quinolin-4-yl-1,5-dihydro-pyrrol-2-one] | 220
37 | CCCCCC1=C(O)C(=O)N(CCCn2ccnc2)C1C (stereo not drawn) [Compound 197, 3-Hydroxy-1-(3-imidazol-1-yl-propyl)-5-methyl-4-pentyl-1,5-dihydro-pyrrol-2-one] | 40
38 | CCCC(=O)C1=C(O)C(=O)N(c2ccc3[nH]cnc3c2)C1c1ccc(C)o1 (stereo not drawn) [Compound 256, 1-(1H-Benzoimidazol-5-yl)-4-butyryl-3-hydroxy-5-(5-methyl-furan-2-yl)-1,5-dihydro-pyrrol-2-one] | 4
39 | CCC1=C(O)C(=O)N(CCCn2ccnc2)C1c1ccc(O)cc1 (stereo not drawn) [Compound 251, 4-Ethyl-3-hydroxy-5-(4-hydroxy-phenyl)-1-(3-imidazol-1-yl-propyl)-1,5-dihydro-pyrrol-2-one] | 400
